Test results from Sander's compilation of Henry's law constants (doi:10.1016/s0045-6535(99)00082-x).

assay: Henry solubility constant Hcp at 298.15 K (mol/(m3 Pa)); settings: reference: Altschuh et al. (1999)

First: Clc1ccc(C(c2ccc(Cl)cc2)C(Cl)(Cl)Cl)cc1 [1,1,1-trichloro-2,2-bis-(4-chlorophenyl)-ethane]
Second: Clc1ccc(C(c2ccc(Cl)cc2)C(Cl)Cl)cc1 [1,1-dichloro-2,2-bis-(4-chlorophenyl)-ethane]
The “Henry solubility constant Hcp” value of the first is lower: 1.2 for the first, 1.5 for the second.

First: ClC(Cl)=C(c1ccc(Cl)cc1)c1ccc(Cl)cc1 [1,1-dichloro-2,2-bis-(4-chlorophenyl)-ethene]
Second: COc1ccc(C(c2ccc(OC)cc2)C(Cl)(Cl)Cl)cc1 [methoxychlor]
The “Henry solubility constant Hcp” value of the first is lower: 0.24 for the first, 49 for the second.

First: CCC(O)CO (stereo unspecified) [1,2-butanediol]
Second: CCCO [1-propanol]
The “Henry solubility constant Hcp” value of the first is higher: greater than 340 for the first, 2.7 for the second.

Going from `O=[N+]([O-])c1ccc(Cl)c(Cl)c1` [1,2-dichloro-4-nitrobenzene] to `Nc1ccc([N+](=O)[O-])cc1Cl` [2-chloro-4-nitrobenzenamine], the “Henry solubility constant Hcp” value rises from 1.2 to 1000.

Compared with `OCCCCO` [1,4-butanediol], `CCCCCCO` [1-hexanol] is lower in “Henry solubility constant Hcp” value: greater than 900 for the first, 0.98 for the second.

First: O=[N+]([O-])c1cc(Cl)ccc1Cl [1,4-dichloro-2-nitrobenzene]
Second: O=[N+]([O-])c1cccc(Cl)c1 [3-chloronitrobenzene]
The “Henry solubility constant Hcp” value of the first is higher: 0.82 for the first, 0.73 for the second.

Going from `Nc1cccc(Cl)c1` [1-amino-3-chlorobenzene] to `Cc1cccc(N)c1` [3-methylbenzenamine], the “Henry solubility constant Hcp” value falls from 9.8 to 5.9.

Going from `CCCCN` [1-butanamine] to `CCCCCCCO` [1-heptanol], the “Henry solubility constant Hcp” value rises from 0.56 to 0.86.

First: CCCCCCCCCCO [1-decanol]
Second: CCCCCCCCO [1-octanol]
The “Henry solubility constant Hcp” value of the first is lower: 0.31 for the first, 0.65 for the second.

Going from `CCc1cccc2ccccc12` [1-ethylnaphthalene] to `Cc1cccc2ccccc12` [1-methylnaphthalene], the “Henry solubility constant Hcp” value rises from 0.014 to 0.019.

Going from `Cc1ccccc1O` [1-hydroxy-2-methylbenzene] to `Cc1ccccc1N` [2-methylbenzenamine], the “Henry solubility constant Hcp” value falls from 6.3 to 5.

First: Cc1cccc(O)c1 [1-hydroxy-3-methylbenzene]
Second: Cc1cccc([N+](=O)[O-])c1 [3-nitrotoluene]
The “Henry solubility constant Hcp” value of the first is higher: 12 for the first, 1.1 for the second.

First: Cc1ccc(O)cc1 [1-hydroxy-4-methylbenzene]
Second: Cc1ccc([N+](=O)[O-])cc1 [4-nitrotoluene]
The “Henry solubility constant Hcp” value of the first is higher: greater than 2.9 for the first, 1.8 for the second.

Going from `Nc1cccc2ccccc12` [1-naphthylamine] to `O=[N+]([O-])c1cccc2ccccc12` [1-nitronaphthalene], the “Henry solubility constant Hcp” value falls from 160 to 5.6.

Going from `CCCCCCCCCCCCCN` [1-tridecanamine] to `CCCCCCCCCCCCN(C)C` [N,N-dimethyl-1-dodecanamine], the “Henry solubility constant Hcp” value rises from 0.09 to greater than 4.

Going from `OCC#CCO` [2-butyne-1,4-diol] to `CCO` [ethanol], the “Henry solubility constant Hcp” value falls from greater than 2000 to 1.3.

Going from `CCc1ccc2ccccc2c1` [2-ethylnaphthalene] to `Cc1ccc2ccccc2c1` [2-methylnaphthalene], the “Henry solubility constant Hcp” value falls from 0.018 to 0.016.

First: CC(C)CO [2-methyl-1-propanol]
Second: CC(C)O [2-propanol]
The “Henry solubility constant Hcp” value of the first is higher: 1.1 for the first, 0.92 for the second.

Compared with `C=CC(C)(C)O` [2-methyl-3-buten-2-ol], `C#CC(C)(C)O` [2-methyl-3-butyn-2-ol] is higher in “Henry solubility constant Hcp” value: 0.47 for the first, 2.5 for the second.

Compared with `Nc1ccccc1[N+](=O)[O-]` [2-nitrobenzenamine], `O=[N+]([O-])c1ccccc1` [nitrobenzene] is lower in “Henry solubility constant Hcp” value: 170 for the first, 1.2 for the second.

`OCCc1ccccc1` [2-phenylethanol] and `OCCCc1ccccc1` [3-phenyl-1-propanol] cannot be ordered by “Henry solubility constant Hcp” value: greater than 37 for the first, greater than 180 for the second.

Compared with `C=CC(C)(O)CCC=C(C)C` (stereo unspecified) [3,7-dimethyl-1,6-octadien-3-ol], `CCCCNCCCC` [dibutylamine] is higher in “Henry solubility constant Hcp” value: 0.46 for the first, 1 for the second.

Going from `CC1CCCC(O)C1` (stereo unspecified) [3-methylcyclohexanol] to `CN(C)C1CCCCC1` [N,N-dimethylcyclohexylamine], the “Henry solubility constant Hcp” value falls from 2.7 to 0.42.

Compared with `O=[N+]([O-])c1ccc(Cl)cc1` [4-chloronitrobenzene], `Nc1ccc([N+](=O)[O-])cc1` [4-nitrobenzenamine] is higher in “Henry solubility constant Hcp” value: 2 for the first, 8600 for the second.

`OCCCCc1ccccc1` [4-phenyl-1-butanol] and `OCc1ccccc1` [(hydroxymethyl)-benzene] cannot be ordered by “Henry solubility constant Hcp” value: greater than 6.7 for the first, greater than 37 for the second.

Compared with `CCNc1ccccc1` [(ethylamino)-benzene], `Cc1ccccc1` [methylbenzene] is lower in “Henry solubility constant Hcp” value: 1 for the first, 0.0017 for the second.

Going from `ClC1=C(Cl)[C@]2(Cl)[C@H]3[C@H]([C@@H]4C=C[C@H]3C4)[C@@]1(Cl)C2(Cl)Cl` [aldrin] to `ClC1=C(Cl)C2(Cl)C3C(Cl)C=CC3C1(Cl)C2(Cl)Cl` (stereo unspecified) [heptachlor], the “Henry solubility constant Hcp” value falls from 0.22 to 0.034.

First: Nc1ccccc1 [aminobenzene]
Second: c1ccc2ccccc2c1 [naphthalene]
The “Henry solubility constant Hcp” value of the first is higher: 5.2 for the first, 0.018 for the second.

First: c1ccccc1 [benzene]
Second: c1ccc2c(c1)cc1ccc3cccc4ccc2c1c34 [benzo[a]pyrene]
The “Henry solubility constant Hcp” value of the first is lower: 0.0037 for the first, 13 for the second.

Compared with `OC1CCCCCCCCCCC1` [cyclododecanol], `NC1CCCCC1` [cyclohexanamine] is lower in “Henry solubility constant Hcp” value: 3.4 for the first, 2.4 for the second.

First: ClC1=C(Cl)[C@]2(Cl)[C@@H]3[C@@H]4C[C@@H]([C@H]5O[C@@H]45)[C@@H]3[C@@]1(Cl)C2(Cl)Cl [dieldrin]
Second: ClC1=C(Cl)[C@]2(Cl)[C@@H]3[C@H]4C[C@H]([C@@H]5O[C@H]45)[C@@H]3[C@@]1(Cl)C2(Cl)Cl [endrin]
The “Henry solubility constant Hcp” value of the first is lower: 0.98 for the first, 1.6 for the second.

Compared with `ClC1=C(Cl)C2(Cl)C3C4OC4C(Cl)C3C1(Cl)C2(Cl)Cl` (stereo unspecified) [heptachlorepoxide], `ClC1C(Cl)C(Cl)C(Cl)C(Cl)C1Cl` (stereo not drawn) [α-1,2,3,4,5,6-hexachlorocyclohexane] is higher in “Henry solubility constant Hcp” value: 0.47 for the first, 0.81 for the second.

For `ClC1C(Cl)C(Cl)C(Cl)C(Cl)C1Cl` (stereo not drawn) [β-1,2,3,4,5,6-hexachlorocyclohexane], the “Henry solubility constant Hcp” value was 22.
For `ClC1C(Cl)C(Cl)C(Cl)C(Cl)C1Cl` (stereo unspecified) [γ-1,2,3,4,5,6-hexachlorocyclohexane], the “Henry solubility constant Hcp” value was 1.9.
